Key:
[1] = test system: Mv1Lu mink lung epithelial cells; test: 384 well anti-BrdU cytoblot; assay type: cell-based; details: 384-well plate; TGF-β 16 hours, then 10 μM BrdU 16 hours
Excerpt: FIG. 1. An immunodetection assay for DNA synthesis in high density arrays of mammalian cells. (a) Cartoon depiction of an anti-BrdU cytoblot. The thymine analog 5-bromodeoxyuridine (BrdU) is incorporated into the DNA of cells that are actively replicating their DNA. The cells are in the well, and BrdU is detected with a two step antibody binding procedure. The second antibody is conjugated to the enzyme horseradish peroxidase. In the presence of the chemiluminescent substrate luminol as well as hydrogen peroxide, light of wavelength 428 nm is generated. The light emission can be detected by exposing the plate to film. (b) A cytoblot can detect TGF-β's ability to prevent BrdU incorporation in mink lung epithelial cells. 2000 Mv1Lu mink lung epithelial cells were seeded in each well of a white, opaque 384 well plate. The cells were seeded in the indicated concentrations of TGF-β in 50 μL of DMEM with 1% fetal bovine serum (FBS), 100 units/mL penicillin G sodium, 100 μg/mL streptomycin sulfate and 100 μM each of the amino acids alanine, aspartic acid, glutamine, glycine, asparagine and proline (referred to throughout as 1% mink medium) and allowed to incubate at 37° C. with 5% CO2. After 16 hours, 5.5 μL of 100 μM BrdU in 1% mink medium was added to each well, for a final concentration of 10 μM BrdU. The cells were incubated at 37° C. with 5% CO2 for an additional 16 hours and then an anti-BrdU cytoblot protocol was performed (see protocol). Wells shown are magnified 4×.
FIG. 2. A cytoblot can detect the ability of numerous antiproliferative agents to inhibit BrdU incorporation. 2000 Mv1Lu mink lung epithelial cells were seeded in each well of a white, opaque 384 well plate. The cells were seeded in 40 μL of 1% mink media and immediately 40 μL of 2× stocks of the reagents shown was added to each well and the cells were allowed to incubate at 37° C. with 5% CO2. After 24 hours, 9 μL of 100 μM BrdU in 1% mink medium was added to each well, for a final concentration of 10 μM BrdU. The cells were incubated at 37° C. with 5% CO2 for an additional 16 hours and then an anti-BrdU cytoblot protocol was performed (see protocol). Wells shown are magnified 2.5×.
The ability of the cytoblot assay to detect changes in DNA synthesis was tested by measuring the incorporation of 5-bromodeoxyuridine (BrdU, Sigma Corporation, St. Louis, Mo., Cat.# B9285) into DNA in the presence or absence of the anti-mitogen transforming growth factor β (TGF-β). Mink lung cells, which are responsive to TGF-β, were seeded into each well of an opaque, white 384-well plate. The cells were subsequently treated with varying concentrations of TGF-β for 16 hours and then with 10 μM BrdU for 16 hours. […] The following protocols provide experimental detail. […]

BS-C-1 cells = test: fluorescence microscopy and live imaging of BS-C-1 cells; assay type: cell-based, monkey
Experimental: We investigated the phenotype of mammalian cells (BS-C-I) treated with the compounds of group III. […] Our examination of the distribution of microtubules, actin, and chromatin in fixed cells by fluorescence microscopy allowed us to divide the small molecules into three classes.
In brief, BSCI cells were seeded on glass coverslips and cultured overnight.
We then asked whether the chromosomes surrounding the monoastral microtubule array maintain microtubule attachment.

phosphorylated nucleolin = test: anti-phosphonucleolin (TG-3) cytoblot screen; assay type: cell-based, human
Experimental: A detection assay providing an indirect measure of the mitotic index of a population of cells was used to identify compounds that act as cell cycle inhibitors. By measuring the level of phosphorylation of a chromatin-associated protein using the anti-phosphonucleolin (TG-3) cytoblot (Stockwell et al. 1999), nucleolin the mitotic index (i.e., the number of cell in mitosis) was assessed. In brief, the library compounds were dissolved in DMSO (5 mg/ml) and pin-transferred from 384-well plates (Library plates #1-51) for a final concentration 5-10 ug/ml using a 384-polypropylene pin array (Genetix) into 384-well screening plates (Nunc) seeded with 4,000 A549 human lung carcinoma cells (ATCC) in DMEM+ and incubated for 22 hours at 37° C. with 5% CO2. Compounds from library plates #1-24 were pooled at two compounds per well, while compounds from library plates #25-51 were tested singly. […] The reactivity of the anti-phosphonucleolin antibody was measured using enhanced chemiluminescent detection (Amersham) after incubation of each well with a horseradish peroxidase-coupled anti-mouse IgM secondary antibody (Sigma) and addition of luminol. The relative luminescence produced from each well was measured on an automatic plate reader (LJL Analyst). […]

EC50 (effective concentration) in the cytoblot assay (phosphorylated nucleolin) [µM]	Substance	BrdU incorporation [1]	mitotic cells displaying the monoastral phenotype (BS-C-1 cells)	microtubule, spindle and chromosome phenotype (BS-C-1 cells; BS-C-1 cells, 1A at 40 μM for 4 hours)	chromosome attachment to microtubules (BS-C-1 cells; live images of BS-C-1 cells)
	TGF-β: anti-mitogen transforming growth factor β, multifunctional polypeptide signaling factor	effectively prevented BrdU incorporation			
22	monastrol		Over 90%	the bipolar spindle was replaced with a monoastral microtubule array surrounded by a ring of chromosomes	does not inhibit chromosome attachment to microtubules

Source: patent publication US20080311589A1, “METHOD OF HIGH-THROUGHPUT SCREENING OF MOLECULES AND COMPOUNDS FOR THEIR EFFECTS ON BIOLOGICAL AND CHEMICAL PROCESSES” (priority 1999, published 2008)
